Laboratory results as given in PubChem BioAssay (NCI).
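Values below derive from 48-hour exposures of cells grown in 96-well plates, with endpoints linearly interpolated between the two concentrations bracketing the appropriate inhibition level. Abbreviation: GI50, concentration required for 50% inhibition of growth. TGI is the concentration that stops growth completely.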

Key:
Experiment in all cases: NCI tumour cell line growth inhibition, 48 h
DLD-1 colon = test system: DLD-1 colon
M19-MEL melanoma = test system: M19-MEL melanoma
RXF-631 renal = test system: RXF-631 renal
KM20L2 colon = test system: KM20L2 colon
SNB-78 CNS = test system: SNB-78 CNS
DMS 114 small cell lung = test system: DMS 114 small cell lung
XF 498 CNS = test system: XF 498 CNS
HS 578T breast = test system: HS 578T breast
MDA-N = test system: MDA-N

Row | Compound | TGI (DLD-1 colon) | TGI (M19-MEL melanoma) | TGI (KM20L2 colon) | TGI (SNB-78 CNS) | TGI (DMS 114 small cell lung) | TGI (XF 498 CNS) | GI50 (HS 578T breast) | TGI (HS 578T breast) | other results
1 | COC(=O)C1=NC(=S)NC(c2ccccc2)C1c1nc2ccccc2s1 (stereo not drawn) | > 100 µM | > 100 µM | > 100 µM | > 100 µM | > 100 µM | – | – | – | TGI (RXF-631 renal): > 100 µM
2 | CCOC1=NC(=O)CC(c2ccccc2)S1 (stereo not drawn) | > 100 µM | > 100 µM | > 100 µM | > 100 µM | – | > 100 µM | – | – | –
3 | CCC[CH2][Sn]1([CH2]CCC)[O]C(=O)C(C(C)C)N=Cc2ccccc2[O]1 (stereo not drawn) | > 100 µM | 1.08 µM | 2.22 µM | 1.23 µM | 0.229 µM | > 100 µM | – | – | GI50 (DLD-1 colon): 0.499 µM; GI50 (XF 498 CNS): > 100 µM; GI50 (M19-MEL melanoma): 0.232 µM; GI50 (RXF-631 renal): 0.166 µM; TGI (RXF-631 renal): 0.308 µM; GI50 (KM20L2 colon): 1.04 µM; GI50 (SNB-78 CNS): 0.227 µM; GI50 (DMS 114 small cell lung): 0.0918 µM
4 | Cc1ccc(Nc2nc3c(s2)C(=O)c2ccccc2C3=O)c(C)c1 | 31.4 µM | 5.71 µM | > 100 µM | 43.6 µM | 24.1 µM | 36.2 µM | – | – | –
5 | CC(=O)OC1Oc2ccccc2-c2oc(=O)c(-c3cc4ccc(N(C)C)cc4oc3=O)cc21 (stereo not drawn) | – | – | – | – | – | – | 4.56 µM | 26.1 µM | –
6 | CCS(=O)(=O)c1ccc(OC)c(Nc2ncc(-c3cccc(OC)c3)o2)c1 | – | – | – | – | – | – | 5.48 µM | 17.6 µM | –
7 | COc1ccc(C(C)c2cc3c(cc2OC)OCO3)cc1 (stereo not drawn) | > 100 µM | > 100 µM | 0.533 µM | > 31.6 µM | 2.77 µM | – | – | – | –
8 | O=C(O)CP(=S)(S)c1ccccc1 (stereo not drawn) | > 100 µM | > 100 µM | – | > 100 µM | > 100 µM | > 100 µM | – | – | –
9 | CC(C)N(C(=O)C12CC3CC(CC(C3)C1)C2)C(C)C | > 50 µM | > 50 µM | > 50 µM | > 50 µM | > 50 µM | – | – | – | –
10 | NC(N)=NCCCn1c2c(c3ccccc3c1=O)C(=O)c1ccccc1-2 | – | – | – | – | – | – | 2.67 µM | 25.7 µM | –
11 | CCN(CC)CCCC(C)Nc1c(C)cnc2cc(Cl)c(C)cc12 (stereo not drawn) | – | – | – | – | – | – | 19.1 µM | 45.2 µM | –
12 | CCOC(=O)c1cc(/C(=N\O)c2cc(OC)c(OC)c(OC)c2)n2cc(C)cc(C)c12 | – | – | – | – | – | – | 2.7 µM | > 100 µM | –
13 | CCOC(=O)CN=c1nc(SC)sc2c(C(=O)OCC)nc(Sc3ccccc3)n12 | > 100 µM | > 100 µM | > 100 µM | – | > 100 µM | > 100 µM | – | – | TGI (RXF-631 renal): > 100 µM
14 | O=C(O)CN(c1ccccc1)S(=O)(=O)c1ccccc1[N+](=O)[O-] | > 100 µM | > 100 µM | > 100 µM | – | – | > 100 µM | – | – | TGI (RXF-631 renal): > 100 µM
15 | COc1ccc(C(=O)COc2cccc(/C=C3\COc4ccc5ccccc5c4C3=O)c2)cc1 | – | – | – | – | – | – | 4.93 µM | > 100 µM | –
16 | CCN(CC)c1sc(N(CC)CC)c2c1SSSSS2 | – | – | – | – | – | – | 2.75 µM | 23.2 µM | –

Row | Compound | TGI (DLD-1 colon) | TGI (M19-MEL melanoma) | TGI (KM20L2 colon) | TGI (SNB-78 CNS) | TGI (DMS 114 small cell lung) | TGI (XF 498 CNS) | GI50 (HS 578T breast) | TGI (HS 578T breast) | other results
17 | CCOC(=O)NC(=O)c1cn(CCOCCOC(=O)NCCCCCCNC(=O)OCCOCCn2cc(C(=O)NC(=O)OCC)c(=O)[nH]c2=O)c(=O)[nH]c1=O | > 100 µM | > 100 µM | > 100 µM | > 100 µM | > 100 µM | – | – | – | TGI (RXF-631 renal): > 100 µM
18 | COc1c2c(cc3nc4ccccc4nc13)CCC(C(C)(C)O)C2 (stereo not drawn) | > 100 µM | > 100 µM | > 100 µM | > 100 µM | – | > 100 µM | – | – | –
19 | Cc1cc(C)nc(NS(=O)(=O)c2ccc(Nc3c4ccccc4nc4c(C(=O)Nc5ccc(S(=O)(=O)Nc6cc(C)on6)cc5)cccc34)cc2)n1 | 78.8 µM | 47.2 µM | 44.4 µM | > 100 µM | 35.3 µM | 53.5 µM | – | – | –
20 | CN(C)CCNC(=O)c1cccc(C(=O)Nc2ccccc2)c1[N+](=O)[O-] | – | – | – | – | – | – | – | > 100 µM | TGI (MDA-N): > 100 µM
21 | CCN1C(=O)CNc2ncc(-c3ccc(-c4ncn[nH]4)nc3C)nc21 | – | – | – | – | – | – | 0.111 µM | 0.526 µM | –
22 | COc1ccc(OC)c(/C=C/C(=O)N/N=C/c2ccc(Cl)cc2)c1 | – | – | – | – | – | – | 0.188 µM | > 100 µM | –
23 | CN(C)CC/C(=N\Nc1c(Cl)cccc1Cl)c1ccccc1 | > 100 µM | 33.6 µM | 33.1 µM | 62.1 µM | 34 µM | – | – | – | –
24 | Cc1cccc(NC(=O)C(=O)Cc2nc3ccccc3[nH]c2=O)c1C | > 100 µM | > 100 µM | > 100 µM | > 100 µM | > 100 µM | > 100 µM | – | – | –
25 | CCC#CC[C@H]1C/C=C2/C(=O)C=C[C@@H]2C/C=C\CCCC(=O)O1 | – | – | – | – | – | – | 1.96 µM | 14.8 µM | –
26 | CC(C)=CCC/C(=C/CC/C(C)=C/CCc1ccoc1)C(=O)O | > 100 µM | > 100 µM | > 100 µM | > 100 µM | > 100 µM | > 100 µM | – | – | –
27 | CC[O-].CC[O-].O=C1c2ccccc2C(=O)c2c(O)ccc([O-])c21.O=C1c2ccccc2C(=O)c2c(O)ccc([O-])c21.[Ti+4] | > 100 µM | 73.4 µM | > 100 µM | > 100 µM | > 100 µM | – | – | – | GI50 (KM20L2 colon): > 100 µM
28 | CC1=C(C)CC2(CCCCC2=O)S(=O)C1 (stereo not drawn) | > 100 µM | > 100 µM | > 100 µM | > 100 µM | > 100 µM | > 100 µM | – | – | –
29 | COc1cc2oc(-c3ccc(O)cc3)cc(=O)c2c(OC)c1OC | – | – | – | – | – | – | – | > 100 µM | TGI (MDA-N): > 100 µM
30 | CC(=O)OC1CC(O)C23COC(O)C1(C)C2CC(O)C1(C)C3C(=O)C(O)C2(C)C(c3ccoc3)CC3OC321 (stereo not drawn) | – | – | – | – | – | – | – | – | GI50 (MDA-N): 0.0178 µM; TGI (MDA-N): > 100 µM
31 | COc1ccc(C(=O)c2cc(C)c(OC)c(C)c2)c(OC)c1N(C(=O)C(Cl)Cl)C(=O)C(Cl)Cl | – | – | – | – | – | – | 0.0277 µM | > 100 µM | –
32 | O=C1NC(=O)c2ccc([N+](=O)[O-])c3cccc1c23 | – | – | – | – | – | – | – | 61 µM | TGI (MDA-N): 26.8 µM
